In US9708314B2, “Heterocyclic amide compound” (NISSAN CHEMICAL INDUSTRIES, LTD., priority 2013, dated 2017):

Tests used:
Format in all cases: in vivo
[1] = tested on: Beta vulgaris ssp. vulgaris; assay: Test Example 4: effect on crop by application to foliage (diluvial soil, plastic box); conditions: for f (Beta vulgaris ssp. vulgaris) effect on crop: application to foliage, application herbicide amount 320 g/ha; for f: Application herbicide amount 320 g/ha, effect on crop
Procedure, shortened: (§1)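 Seeds sown in sterilized diluvial soil, covered ~1.5 cm, grown 14 days in greenhouse at 25° C. to 30° C. Emulsion formulation diluted in water to set rate (g/ha) and sprayed onto stems and leaves. Effect scored visually 3 weeks later on 0–5 scale (5 = ≥90% herbicidal ratio, 0 = ≤5%).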

Zea mays = assay: as above; conditions: for b (Zea mays) effect on crop: application to foliage, application herbicide amount 320 g/ha; for b: Application herbicide amount 320 g/ha, effect on crop
Procedure, shortened: as §1

Brassica campestris L. = assay: as above; conditions: for g (Brassica campestris L.) effect on crop: application to foliage, application herbicide amount 320 g/ha; for g: Application herbicide amount 320 g/ha, effect on crop
Procedure, shortened: as §1

[2] = tested on: directly sowed Oryza sativa; assay: as above; conditions: for d (directly sowed Oryza sativa) effect on crop: application to foliage, application herbicide amount 320 g/ha; for d: Application herbicide amount 320 g/ha, effect on crop
Procedure, shortened: as §1

Glycine max = assay: as above; conditions: for c (Glycine max) effect on crop: application to foliage, application herbicide amount 320 g/ha; for c: Application herbicide amount 320 g/ha, effect on crop
Procedure, shortened: as §1

[3] = tested on: transplanted Oryza sativa; assay: Test Example 1: effect on crop, application before weed generation in submerged conditions; conditions: Application herbicide amount 320 g/ha; Seventeenth Table
Procedure, shortened: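 Pre-emergence water-surface application under 4 cm flooding, same day as sowing, with rice transplanted at 2.5 leaf stage. Dose given as g/ha. Plants grown at 25° C. to 30° C. and rated three weeks later on a 0 (≤5%) to 5 (≥90%) herbicidal-ratio scale.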

Leptochloa chinensis = assay: Test Example 3: herbicidal effect by application to foliage (Wagner pot, water depth 0.1-0.5 cm); conditions: Nineteenth Table, application herbicide amount 320 g/ha; for D (herbicidal effect grade): application to foliage
Procedure, shortened: (§2)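 Scores (0–5) reflect herbicidal ratio three weeks after a foliar spray: 0 is 5% or less, 5 is 90% or more. Plants had grown 14 days in alluvial soil pots in a 25–30 °C greenhouse before treatment with water-diluted emulsion at a set g/ha.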

[4] = tested on: Echinochloa crus-galli var. crus-galli; assay: as above; conditions: Nineteenth Table, application herbicide amount 320 g/ha; for H (herbicidal effect grade): application to foliage
Procedure, shortened: as §2

Cyperus difformis = assay: as above; conditions: Nineteenth Table, application herbicide amount 320 g/ha; for E (herbicidal effect grade): application to foliage
Procedure, shortened: as §2

Row | SMILES | f (Beta vulgaris ssp. vulgaris) effect on crop [1] | b (Zea mays) effect on crop (Zea mays) | g (Brassica campestris L.) effect on crop (Brassica campestris L.) | d (directly sowed Oryza sativa) effect on crop [2] | c (Glycine max) effect on crop (Glycine max) | a: transplanted Oryza sativa (effect on crop grade) [3] | D (Leptochloa chinensis) herbicidal ratio grade (Leptochloa chinensis) | H (Echinochloa crus-galli var. crus-galli) herbicidal ratio grade [4] | E (Cyperus difformis) herbicidal ratio grade (Cyperus difformis) | f [1] | b (Zea mays) | g (Brassica campestris L.) | d [2] | c (Glycine max) | D (herbicidal effect grade) (Leptochloa chinensis) | H (herbicidal effect grade) [4] | E (herbicidal effect grade) (Cyperus difformis)
1 | COc1cccc(-c2nnc3c(C(=O)Nc4nnc(C)o4)ccc(C(F)(F)F)n23)c1 [1-046] | 5 (Herbicidal ratio of 90% or more (almost completely withered)) | 1 (Herbicidal ratio of 5% or more and less than 20%) | 4 (Herbicidal ratio of 70% or more and less than 90%) | 3 (Herbicidal ratio of 40% or more and less than 70%) | 2 (Herbicidal ratio of 20% or more and less than 40%) | 2 (Herbicidal ratio of 20% or more and less than 40%) | 3 (Herbicidal ratio of 40% or more and less than 70%) | 5 (Herbicidal ratio of 90% or more (almost completely withered)) | 3 (Herbicidal ratio of 40% or more and less than 70%) | – | – | – | – | – | – | – | –
2 | COc1ccccc1-c1nnc2c(C(=O)Nc3nnc(C)o3)ccc(C(F)(F)F)n12 [1-047] | 5 (Herbicidal ratio of 90% or more (almost completely withered)) | 0 (Herbicidal ratio of 5% or less (almost no effect)) | 4 (Herbicidal ratio of 70% or more and less than 90%) | 3 (Herbicidal ratio of 40% or more and less than 70%) | 1 (Herbicidal ratio of 5% or more and less than 20%) | 1 (Herbicidal ratio of 5% or more and less than 20%) | 5 (Herbicidal ratio of 90% or more (almost completely withered)) | 5 (Herbicidal ratio of 90% or more (almost completely withered)) | 4 (Herbicidal ratio of 70% or more and less than 90%) | – | – | – | – | – | – | – | –
3 | Cc1nnc(NC(=O)c2ccc(C(F)(F)F)n3c(CC(=O)O)nnc23)o1 [1-048] | 5 (Herbicidal ratio of 90% or more (almost completely withered)) | 0 (Herbicidal ratio of 5% or less (almost no effect)) | 4 (Herbicidal ratio of 70% or more and less than 90%) | 4 (Herbicidal ratio of 70% or more and less than 90%) | 0 (Herbicidal ratio of 5% or less (almost no effect)) | 1 (Herbicidal ratio of 5% or more and less than 20%) | 4 (Herbicidal ratio of 70% or more and less than 90%) | 5 (Herbicidal ratio of 90% or more (almost completely withered)) | 3 (Herbicidal ratio of 40% or more and less than 70%) | – | – | – | – | – | – | – | –
4 | Cc1nnc(NC(=O)c2ccc(C(F)(F)F)n3c(CC(=O)OC(C)C)nnc23)o1 [1-049] | 5 (Herbicidal ratio of 90% or more (almost completely withered)) | 0 (Herbicidal ratio of 5% or less (almost no effect)) | 4 (Herbicidal ratio of 70% or more and less than 90%) | 3 (Herbicidal ratio of 40% or more and less than 70%) | 4 (Herbicidal ratio of 70% or more and less than 90%) | 0 (Herbicidal ratio of 5% or less (almost no effect)) | 4 (Herbicidal ratio of 70% or more and less than 90%) | 5 (Herbicidal ratio of 90% or more (almost completely withered)) | 4 (Herbicidal ratio of 70% or more and less than 90%) | – | – | – | – | – | – | – | –
5 | CC(C)c1nnc2c(C(=O)Nc3nnco3)ccc(C(F)(F)F)n12 [1-050] | 5 (Herbicidal ratio of 90% or more (almost completely withered)) | 1 (Herbicidal ratio of 5% or more and less than 20%) | 5 (Herbicidal ratio of 90% or more (almost completely withered)) | 4 (Herbicidal ratio of 70% or more and less than 90%) | 3 (Herbicidal ratio of 40% or more and less than 70%) | 2 (Herbicidal ratio of 20% or more and less than 40%) | 5 (Herbicidal ratio of 90% or more (almost completely withered)) | 5 (Herbicidal ratio of 90% or more (almost completely withered)) | 5 (Herbicidal ratio of 90% or more (almost completely withered)) | – | – | – | – | – | – | – | –
6 | CC(C)c1nnc2c(C(=O)Nc3nnc(C4CC4)o3)ccc(C(F)(F)F)n12 [1-051] | 3 (Herbicidal ratio of 40% or more and less than 70%) | 0 (Herbicidal ratio of 5% or less (almost no effect)) | 1 (Herbicidal ratio of 5% or more and less than 20%) | 1 (Herbicidal ratio of 5% or more and less than 20%) | 0 (Herbicidal ratio of 5% or less (almost no effect)) | 0 (Herbicidal ratio of 5% or less (almost no effect)) | 5 (Herbicidal ratio of 90% or more (almost completely withered)) | 4 (Herbicidal ratio of 70% or more and less than 90%) | 4 (Herbicidal ratio of 70% or more and less than 90%) | – | – | – | – | – | – | – | –
7 | COCCc1nnc(NC(=O)c2ccc(C(F)(F)F)n3c(C(C)C)nnc23)o1 [1-052] | 3 (Herbicidal ratio of 40% or more and less than 70%) | 0 (Herbicidal ratio of 5% or less (almost no effect)) | 3 (Herbicidal ratio of 40% or more and less than 70%) | 2 (Herbicidal ratio of 20% or more and less than 40%) | 0 (Herbicidal ratio of 5% or less (almost no effect)) | 0 (Herbicidal ratio of 5% or less (almost no effect)) | 5 (Herbicidal ratio of 90% or more (almost completely withered)) | 4 (Herbicidal ratio of 70% or more and less than 90%) | 5 (Herbicidal ratio of 90% or more (almost completely withered)) | – | – | – | – | – | – | – | –
8 | Cc1nnc(NC(=O)c2ccc(C(F)F)n3c(C(C)C)nnc23)o1 [1-053] | 3 (Herbicidal ratio of 40% or more and less than 70%) | 0 (Herbicidal ratio of 5% or less (almost no effect)) | 1 (Herbicidal ratio of 5% or more and less than 20%) | 3 (Herbicidal ratio of 40% or more and less than 70%) | 0 (Herbicidal ratio of 5% or less (almost no effect)) | 0 (Herbicidal ratio of 5% or less (almost no effect)) | 4 (Herbicidal ratio of 70% or more and less than 90%) | 4 (Herbicidal ratio of 70% or more and less than 90%) | 4 (Herbicidal ratio of 70% or more and less than 90%) | – | – | – | – | – | – | – | –
9 | Cc1nnc(NC(=O)c2ccc(C(F)(F)F)n3c(-c4ccc(Cl)nc4)nnc23)o1 [1-054] | – | – | – | – | – | 2 (Herbicidal ratio of 20% or more and less than 40%) | – | – | – | 4 (Herbicidal ratio of 70% or more and less than 90%) | 0 (Herbicidal ratio of 5% or less (almost no effect)) | 4 (Herbicidal ratio of 70% or more and less than 90%) | 3 (Herbicidal ratio of 40% or more and less than 70%) | 1 (Herbicidal ratio of 5% or more and less than 20%) | 5 (Herbicidal ratio of 90% or more (almost completely withered)) | 5 (Herbicidal ratio of 90% or more (almost completely withered)) | 5 (Herbicidal ratio of 90% or more (almost completely withered))
10 | Cc1nnc(NC(=O)c2ccc(C(F)(F)F)n3c(-c4cccc(Cl)n4)nnc23)o1 [1-055] | – | – | – | – | – | 1 (Herbicidal ratio of 5% or more and less than 20%) | – | – | – | 5 (Herbicidal ratio of 90% or more (almost completely withered)) | 0 (Herbicidal ratio of 5% or less (almost no effect)) | 4 (Herbicidal ratio of 70% or more and less than 90%) | 3 (Herbicidal ratio of 40% or more and less than 70%) | 0 (Herbicidal ratio of 5% or less (almost no effect)) | 4 (Herbicidal ratio of 70% or more and less than 90%) | 5 (Herbicidal ratio of 90% or more (almost completely withered)) | 5 (Herbicidal ratio of 90% or more (almost completely withered))
